Results from patent publication US20040235761A1, “Novel virus proliferaton inhibition/virucidal method and novel pyradine nucleotide/pyradine nucleoside analogue” (priority 2001, published 2004).
Where two headings read alike, the source gives them in different places.

How the values were obtained:
[1] = target: Inosine monophosphate dehydrogenase (IMPDH); test: Inosine monophosphate dehydrogenase (IMPDH) inhibition test; type: biochemical; settings: IMPDH enzyme solution from MDCK cell homogenate, 37° C., 1 hour; read-out: 50% inhibition concentration
Method: MDCK cells monolayer-cultured on a culture plate were suspended in 0.05 M Tris-HCl (pH 8.0), and the suspension was homogenated with a Downs homogenizer to obtain a cell homogenate. The cell homogenate was centrifuged at 16000×g, and the thus obtained supernatant was used as an IMPDH enzyme solution.
As reaction compositions, 0.1 M Tris-HCl (pH 8.0), 0.1 M KCl, 30 mM EDTA, 5 mM NAD, 5 mg/mL bovine serum albumin, and 0.04 mM [8-^14C]-inosine 5′-monophosphate were used. After completion of reaction at 37° C. for 1 hour, 2 volumes of acetonitrile were added to terminate the reaction, and the reaction product was concentrated. The obtained concentrate was analyzed under the HPLC conditions indicated below. The ratio between the reaction substrate ([^14C]-inosine 5′-monophosphate) and the reaction product ([^14C]-xanthosine 5′-monophosphate) was obtained, and the reaction rate was calculated. Ribavirin monophosphate was used as a control compound.

[2] = system: bovine diarrhea virus (BVDV) NADL; test: Anti-BVDV effect (plaque inhibition in MDBK cells); type: cell-based; settings: Bovine viral diarrhea virus isolates and strains, 72 h, 100 μg/mL test compound, 70 PFU/well, 3 days, read-out: Inhibition rate (plaque inhibition rate)
Method: MDBK cells that had fully grown in a 6-well culture plate were infected with bovine diarrhea virus (BVDV) NADL at 70 PFU/well. After 60 minutes, the infection solution was removed, and a test culture solution (E′-MEM) containing 5% horse serum and 1% agar (SeaPlaque Agar) that contained a 100 μg/mL test compound was added thereto. The mixture was fully solidified and then cultured for 3 days under conditions of 37° C., a humidity of 100% and 5% CO2. After completion of the culture, the test plate was fixed with a 3% formaldehyde solution, and the agar medium was removed with running water, followed by staining with a 1% crystal violet solution, so as to count the number of plaques. The plaque inhibition rate was expressed by the percentage obtained by comparing with a control to which no test compounds were added.

[3] = system: influenza virus A/PR/8/34; test: Anti-influenza effect (plaque inhibition in MDCK cells); type: cell-based; settings: PR/8, MDCK, 72 h, read-out: Inhibition rate (plaque inhibition rate)
[4] = target: T1, Influenza virus polymerase (crude enzyme from virus particles) (Influenza A virus, UniProt P03431); test: Polymerase inhibition test (influenza virus); type: biochemical; settings: 30° C., 60 minutes, 32P-GTP incorporation, read-out: 50% inhibition concentration
T1 construct: these particles were used as polymerase crude enzymes; from tissue; host or cells: influenza virus particles lysed with Triton N101/LPC (crude enzyme)
T1 sequence (P03431 whole entry, looked up): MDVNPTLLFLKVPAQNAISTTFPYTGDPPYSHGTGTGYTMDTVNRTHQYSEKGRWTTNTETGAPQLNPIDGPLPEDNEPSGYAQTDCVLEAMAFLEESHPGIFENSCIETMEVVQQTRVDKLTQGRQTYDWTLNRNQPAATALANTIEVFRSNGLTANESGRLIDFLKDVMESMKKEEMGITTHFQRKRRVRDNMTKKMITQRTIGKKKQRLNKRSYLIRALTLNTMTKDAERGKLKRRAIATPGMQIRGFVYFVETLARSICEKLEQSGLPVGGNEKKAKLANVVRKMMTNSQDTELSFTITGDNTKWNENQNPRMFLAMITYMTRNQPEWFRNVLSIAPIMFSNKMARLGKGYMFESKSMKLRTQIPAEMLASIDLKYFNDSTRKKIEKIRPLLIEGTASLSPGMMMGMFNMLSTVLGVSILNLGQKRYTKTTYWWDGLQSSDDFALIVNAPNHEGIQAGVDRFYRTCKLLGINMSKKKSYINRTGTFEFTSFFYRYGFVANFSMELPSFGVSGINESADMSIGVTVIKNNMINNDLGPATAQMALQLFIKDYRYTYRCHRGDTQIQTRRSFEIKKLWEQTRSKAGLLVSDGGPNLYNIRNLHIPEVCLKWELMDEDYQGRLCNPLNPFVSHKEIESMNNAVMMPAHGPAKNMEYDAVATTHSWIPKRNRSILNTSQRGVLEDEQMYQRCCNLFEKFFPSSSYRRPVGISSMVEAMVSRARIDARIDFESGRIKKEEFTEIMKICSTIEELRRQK
Method: Influenza virus particles were treated with a dissolving solution (100 mM Tris-HCl (pH 8), 100 mM KCl, 5 mM MgCl2, 1.5 mM DTT, 5% glycerol, 1.5% Triton N101, 1% LPC), and these particles were used as polymerase crude enzymes. Each of the test compounds with different concentrations was added to a reaction buffer (100 mM Tris-HCl (pH 8.0), 100 mM KCl, 5 mM MgCl2, 1 mM DTT, 0.25% Triton N101, 0.25 mM ApG, 0.1 mM ATP, 0.05 mM CTP, 0.05 mM UTP, 0.0005 mM GTP, ^32P-GTP, crude enzyme), followed by incubation at 30° C. for 60 minutes. Thereafter, 10% trichloroacetic acid (TCA) was added thereto, and the mixture was retained on ice for 60 minutes. Thereafter, it was dropped on a GF/C filter, and the filter was then washed with 5% TCA. The filter was dried, and scintillation cocktail was added thereto. The radioactivity was determined using a liquid scintillation counter. The measurement value was given as a 50% inhibition concentration, providing that a group in which no test compounds were added was defined as 100%.

[5] = target: T2, HCV polymerase (NS5B region of hepatitis C virus) (Hepatitis C virus genotype 1a, UniProt P27958); test: Polymerase inhibition test (hepatitis C virus); type: biochemical
T2 construct: The NS5B region of hepatitis C virus was produced in Escherichia coli; made in house; host or cells: Escherichia coli
T2 sequence (P27958 2421-3011): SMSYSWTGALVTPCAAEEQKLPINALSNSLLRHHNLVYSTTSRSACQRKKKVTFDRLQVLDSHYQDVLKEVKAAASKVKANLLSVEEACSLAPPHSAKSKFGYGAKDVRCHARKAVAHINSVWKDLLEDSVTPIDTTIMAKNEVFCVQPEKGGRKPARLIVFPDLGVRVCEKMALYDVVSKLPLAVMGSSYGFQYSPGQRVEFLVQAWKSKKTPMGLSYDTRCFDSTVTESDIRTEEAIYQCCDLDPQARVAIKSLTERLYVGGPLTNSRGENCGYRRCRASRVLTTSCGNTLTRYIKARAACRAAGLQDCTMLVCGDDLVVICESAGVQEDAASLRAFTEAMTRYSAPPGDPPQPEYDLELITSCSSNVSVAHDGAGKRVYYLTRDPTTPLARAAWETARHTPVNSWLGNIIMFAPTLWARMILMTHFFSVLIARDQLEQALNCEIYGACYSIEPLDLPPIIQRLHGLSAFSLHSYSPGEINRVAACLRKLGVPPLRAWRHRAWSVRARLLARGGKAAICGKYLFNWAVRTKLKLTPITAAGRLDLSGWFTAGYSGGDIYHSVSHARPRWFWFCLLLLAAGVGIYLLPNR
Method: The NS5B region of hepatitis C virus was produced in Escherichia coli, and it was used as HCV polymerase for the test. The sequence of the 3′-region of HCV was prepared by the in vitro transcription method, and it was used as an RNA template for the test.
Each of the test compounds with different concentrations was added to a reaction buffer (20 mM Tris-HCl (pH 8.0), 0.05 mM MnCl2, 1 mM DTT, 20 units RNase inhibitor, [α-^32P]GTP, 0.05 mM each of ATP, CTP and UTP, and 2 μg/mL RNA template), followed by incubation at 30° C. for 2 hours. Thereafter, 10% TCA was added to terminate the reaction. Thereafter, the reaction solution was dropped on a DE81 filter, and the filter was then washed with 5% TCA. The filter was dried, and scintillation cocktail was added thereto. The radioactivity was determined using a liquid scintillation counter. The measurement value was given as a 50% inhibition concentration, providing that a group in which no test compounds were added was defined as 100%.

[6] = target: human RNA polymerase (Hela cell nucleus extract) (Homo sapiens, UniProt P24928+P30876); test: Human RNA polymerase inhibition test; type: biochemical; settings: 30° C., 1 hour, read-out: 50% inhibition concentration
Method: A Hela cell nucleus extract (Promega) was used as human RNA polymerase for the test. The pCMP script was cleaved with restriction enzymes and then purified, and it was used as a DNA template for the test.
Each of the test compounds with different concentrations was added to a reaction buffer (Hela cell nucleus extract, 3 mM MgCl2, 0.4 mM each of ATP, UTP and CTP, 0.016 mM GTP, 16 μg/mL DNA template, 0.4 mCi/mL [α-^32P]GTP), followed by incubation at 30° C. for 1 hour. After completion of the reaction, the reaction solution was dropped on a DE81 filter, and the filter was then washed with 5% Na2HPO4 solution 3 times for 30 minutes, and then with distilled water once for 1 minute. The filter was dried, and scintillation cocktail was added thereto. The radioactivity was determined using a liquid scintillation counter. The measurement value was given as a 50% inhibition concentration, providing that a group in which no test compounds were added was defined as 100%.

[7] = NS5B produced in Escherichia coli, 30° C., 2 hours, read-out: 50% inhibition concentration

NC(=O)c1ncn([C@@H]2O[C@H](COP(=O)(O)O)[C@@H](O)[C@H]2O)n1 [Control compound, Ribavirin monophosphate, reference compound]
IC50 [1]: 1.9 µM

CC(C)(C)C(=O)SCCOP(=O)(OCCSC(=O)C(C)(C)C)OC[C@H]1O[C@@H](n2cc(Cl)nc(C(N)=O)c2=O)[C@H](O)[C@@H]1O [Example 4, 2,2-dimethyl-thiopropionic acid S-(2-{[(2R,3S,4R,5R)-5-(3-carbamoyl-5-chloro-2-oxo-2H-pyrazine-1-yl)-3,4-dihydroxy-tetrahydro-furan-2-ylmethoxy]-[2-(2,2-dimethyl-propionylsulfanyl)-ethoxy]-phosphoryloxy]-ethyl) ester]
inhibition at 100 µg/mL [2]: 68%

CC(C)(C)C(=O)OCOP(=O)(OCOC(=O)C(C)(C)C)OC[C@H]1O[C@@H](n2ccnc(C(N)=O)c2=O)[C@H](O)[C@@H]1O [Example 6, 2,2-dimethyl-propionic acid[(2R,3S,4R,5R)-5-(3-carbamoyl-2-oxo-2H-pyrazine-1-yl)-3,4-dihydroxy-tetrahydro-furan-2-ylmethoxy]-(2,2-dimethyl-propionyloxymethoxy)-phosphoryloxymethyl ester]
inhibition at 100 µg/mL [3]: 100% | inhibition at 100 µg/mL [2]: 57%

Cc1cn([C@@H]2O[C@H](CO)[C@@H](O)[C@H]2O)c(=O)c(C(N)=O)n1 [Example 11, 4-[(2R,3R,4S,5R)-3,4-dihydroxy-5-(hydroxymethyl)tetrahydro-2-furanyl]-6-methyl-3-oxo-3,4-dihydro-2-pyrazinecarboxamide]
inhibition at 100 µg/mL [3]: 24%

CC(=O)OC[C@H]1O[C@@H](n2ccnc(C(N)=O)c2=O)[C@H](OC(C)=O)[C@@H]1OC(C)=O [Example 22, (2R,3R,4R,5R)-4-(acetyloxy)-2-[(acetyloxy)methyl]-5-[3-(aminocarbonyl)-2-oxo-1(2H)-pyrazinyl]tetrahydro-3-furanyl acetate]
inhibition at 100 µg/mL [3]: 33%

CC(=O)OC[C@H]1O[C@@H](n2cc(F)nc(C(N)=O)c2=O)[C@H](OC(C)=O)[C@@H]1OC(C)=O [Example 31, (2R,3R,4R, 5R)-4-(acetyloxy)-2-[(acetyloxy)methyl]-5-[3-(aminocarbonyl)-5-fluoro-2-oxo-1(2H)-pyrazinyl] tetrahydro-3-furanyl acetate]
inhibition at 100 µg/mL [3]: 44%

NC(=O)c1nc(F)cn([C@@H]2O[C@H](CO)[C@@H](O)[C@H]2O)c1=O [Example 32, 4-[(2R,3R,4S,5R)-3,4-dihydroxy-5-(hydroxymethyl)tetrahydro-2-furanyl]-6-fluoro-3-oxo-3,4-dihydro-2-pyrazinecarboxamide]
inhibition at 100 µg/mL [3]: 100% | inhibition at 100 µg/mL [2]: 100%

NC(=O)c1nc(F)cn([C@@H]2O[C@H](COP(=O)(O)O)[C@@H](O)[C@H]2O)c1=O [Example 37, [(2R,3S,4R,5R)-5-[3-(aminocarbonyl)-5-fluoro-2-oxo-1(2H)-pyrazinyl]-3,4-dihydroxytetrahydro-2-furanyl]methyl phosphate]
IC50 [1]: 740 µM

NC(=O)c1nc(Cl)cn([C@@H]2O[C@H](CO)[C@@H](O)[C@H]2O)c1=O [Reference Example 7, 6-chloro-4-[(2R,3R,4S,5R)-3,4-dihydroxy-5-(hydroxymethyl)tetrahydro-2-furanyl]-3-oxo-3,4-dihydro-2-pyrazinecarboxamide]
inhibition at 100 µg/mL [3]: 42%

CC(=O)O[C@@H]1[C@H](OC(C)=O)[C@@H](CO)O[C@H]1n1cc(F)nc(C(N)=O)c1=O [Reference Example 12, (2R,3R,4R,5R)-4-(acetyloxy)-2-[3-(aminocarbonyl)-5-fluoro-2-oxo-1(2H)-pyrazinyl]-5-(hydroxymethyl)tetrahydro-3-furanyl acetate]
inhibition at 100 µg/mL [3]: 78%

NC(=O)c1nc(F)cn([C@@H]2O[C@H](COP(=O)(O)OP(=O)(O)OP(=O)(O)O)[C@@H](O)[C@H]2O)c1=O [Reference Example 16, [[2R,3S,4R,5R]-5-[3-(aminocarbonyl)-5-fluoro-2-oxo-1(2H)-pyrazinyl]-3,4-dihydroxytetrahydro-2-furanyl]methyl triphosphate]
IC50 [4]: 0.14 µM | IC50 [5, 7]: 0.75 µM

NC(=O)c1nc(Cl)cn([C@@H]2O[C@H](COP(=O)(O)OP(=O)(O)OP(=O)(O)O)[C@@H](O)[C@H]2O)c1=O [Reference Example 17, {(2R,3S,4R,5R)-5-[3-(aminocarbonyl)-5-chloro-2-oxo-1(2H)-pyrazinyl]-3,4-dihydroxytetrahydro-2-furanyl}methyl triphosphate]
IC50 [4]: 0.33 µM | IC50 [5, 7]: 2.7 µM

NC(=O)c1nccn([C@@H]2O[C@H](COP(=O)(O)OP(=O)(O)OP(=O)(O)O)[C@@H](O)[C@H]2O)c1=O [Reference Example 22, {(2R,3S,4R,5R)-5-[3-(aminocarbonyl)-2-oxo-1(2H)-pyrazinyl]-3,4-dihydroxytetrahydro-2-furanyl} methyl triphosphate]
IC50 [4]: 0.076 µM | IC50 [5, 7]: 0.088 µM | IC50 [6]: > 200 µM

Cc1cn([C@@H]2O[C@H](COP(=O)(O)OP(=O)(O)OP(=O)(O)O)[C@@H](O)[C@H]2O)c(=O)c(C(N)=O)n1 [Reference Example 23, {(2R,3S,4R,5R)-5-[3-(aminocarbonyl)-5-methyl-2-oxo-1(2H)-pyrazinyl]-3,4-dihydroxytetrahydro-2-furanyl}methyl triphosphate]
IC50 [4]: 0.25 µM | IC50 [5]: 2.2 µM

NC(=O)c1nccn([C@@H]2O[C@H](COP(=O)(O)OP(=O)(O)OP(=O)(O)O)C[C@H]2O)c1=O [Reference Example 25, {(2S,4R,5R)-5-[3-(aminocarbonyl)-2-oxo-1(2H)-pyrazinyl]-4-hydroxytetrahydro-2-furanyl} methyl triphosphate]
IC50 [4]: 28 µM | IC50 [5, 7]: 1.6 µM | IC50 [6]: > 200 µM

NC(=O)c1nccn([C@@H]2O[C@H](COP(=O)(O)O)[C@@H](O)[C@H]2O)c1=O [Reference Example 30, {(2R,3S,4R,5R)-5-[3-(aminocarbonyl)-2-oxo-1(2H)-pyrazinyl]-3,4-dihydroxytetrahydro-2-furanyl}methyl phosphate]
IC50 [1]: 980 µM
